The text below walks through data of US8119628B2, “Pyrrolidine fused indolobenzadiazepine HCV NS5B inhibitors” (Bristol-Myers Squibb Company, priority 2008, dated 2012).

A word on the IC50: it is the concentration that inhibits the measured activity by half. The low end stands for greater potency, the high end for weaker potency. Usually EC50 stands for the midpoint of the concentration-response curve. A higher EC50 goes with weaker potency.

For one test, the target named is T1, HCV NS5B (Hepatitis C virus genotype 1b, UniProt Q9WMX2).
T1 construct: The protein was expressed with an 18 amino acid C-terminal truncation to enhance the solubility; made in house; host or cells: E. coli BL21(DE3)
T1 sequence (Q9WMX2 2420-2992): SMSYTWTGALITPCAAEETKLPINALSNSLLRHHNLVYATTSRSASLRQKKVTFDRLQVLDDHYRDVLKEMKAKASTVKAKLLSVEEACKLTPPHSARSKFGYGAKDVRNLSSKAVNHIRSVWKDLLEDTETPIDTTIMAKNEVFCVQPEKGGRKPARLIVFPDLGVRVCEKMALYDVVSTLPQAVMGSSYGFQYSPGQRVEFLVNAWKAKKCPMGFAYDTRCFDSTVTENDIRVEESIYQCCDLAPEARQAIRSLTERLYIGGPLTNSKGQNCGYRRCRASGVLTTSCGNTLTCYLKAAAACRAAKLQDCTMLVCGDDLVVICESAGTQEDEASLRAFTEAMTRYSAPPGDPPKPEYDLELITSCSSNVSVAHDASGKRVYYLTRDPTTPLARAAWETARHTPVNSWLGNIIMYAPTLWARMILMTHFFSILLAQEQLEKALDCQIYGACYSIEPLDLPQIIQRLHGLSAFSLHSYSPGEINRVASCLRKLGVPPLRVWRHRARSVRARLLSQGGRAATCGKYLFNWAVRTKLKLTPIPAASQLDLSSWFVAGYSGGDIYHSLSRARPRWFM
The experiment in a line: Modified HCV NS5B RdRp enzyme assay (preincubation protocol). It counts as biochemical. To be noted: HCV NS5B RdRp genotype 1b. How it is done:
HCV NS5B RdRp cloning, expression, and purification. The cDNA encoding the NS5B protein of HCV, genotype 1b, was cloned into the pET21a expression vector. The protein was expressed with an 18 amino acid C-terminal truncation to enhance the solubility. The E. coli competent cell line BL21(DE3) was used for expression of the protein. Cultures were grown at 37° C. for ˜4 hours until the cultures reached an optical density of 2.0 at 600 nm. The cultures were cooled to 20° C. and induced with 1 mM IPTG. Fresh ampicillin was added to a final concentration of 50 μg/ml and the cells were grown overnight at 20° C.
Cell pellets (3 L) were lysed for purification to yield 15-24 […] of purified NS5B. The lysis buffer consisted of 20 mM Tris-HCl, pH 7.4, 500 mM NaCl, 0.5% triton X-100, 1 mM DTT, 1 mM EDTA, 20% glycerol, 0.5 mg/ml lysozyme, 10 mM MgCl2, 15 ug/ml deoxyribonuclease I, and Complete TM protease inhibitor tablets (Roche). After addition of the lysis buffer, frozen cell pellets were resuspended using a tissue homogenizer. To reduce the viscosity of the sample, aliquots of the lysate were sonicated on ice using a microtip attached to a Branson sonicator. The sonicated lysate was centrifuged at 100,000×g for 1 hr at 4° C. and filtered through a 0.2 μm filter unit (Corning).
The protein was purified using three sequential chromatography steps: Heparin sepharose CL-6B, polyU sepharose 4B, and Hitrap SP sepharose (Pharmacia). The chromatography buffers were identical to the lysis buffer but contained no lysozyme, deoxyribonuclease I, MgCl2 or protease inhibitor and the NaCl concentration of the buffer was adjusted according to the requirements for charging the protein onto the column. Each column was eluted with a NaCl gradient which varied in length from 5-50 column volumes depending on the column type. After the final chromatography step, the resulting purity of the enzyme is >90% based on SDS-PAGE analysis. The enzyme was aliquoted and stored at −80° C.
Standard HCV NS5B RdRp enzyme assay. HCV RdRp genotype 1b assays were run in a final volume of 60 μl in 96 well plates (Costar 3912). The assay buffer is composed of 20 mM Hepes, pH 7.5, 2.5 mM KCl, 2.5 mM MgCl2, 1 mM DTT, 1.6 U RNAse inhibitor (Promega N2515), 0.1 mg/ml BSA (Promega R3961), and 2% glycerol. All compounds were serially diluted (3-fold) in DMSO and diluted further in water such that the final concentration of DMSO in the assay was 2%. HCV RdRp genotype 1b enzyme was used at a final concentration of 28 nM. A polyA template was used at 6 nM, and a biotinylated oligo-dT12 primer was used at 180 nM final concentration. Template was obtained commercially (Amersham 27-4110). Biotinylated primer was prepared by Sigma Genosys. 3H-UTP was used at 0.6 μCi (0.29 μM total UTP). Reactions were initiated by the addition of enzyme, incubated at 30° C. for 60 min, and stopped by adding 25 μl of 50 mM EDTA containing SPA beads (4 μg/μl, Amersham RPNQ 0007). Plates were read on a Packard Top Count NXT after >1 hr incubation at room temperature.
Modified HCV NS5B RdRp enzyme assay. A modified enzyme assay was performed essentially as described for the standard enzyme assay except for the following: The biotinylated oligo dTl2 primer was precaptured on streptavidin-coated SPA beads by mixing primer and beads in assay buffer and incubating at room temperature for one hour. Unbound primer was removed after centrifugation. The primer-bound beads were resuspended in 20 mM Hepes buffer, pH 7.5 and used in the assay at final concentrations of 20 nM primer and […] beads. Order of addition in the assay: enzyme (14 nM) was added to diluted compound followed by the addition of a mixture of template (0.2 nM), 3H-UTP (0.6 μCi, 0.29 μM), and primer-bound beads, to initiate the reaction; concentrations given are final. Reactions were allowed to proceed for 4 hours at 30° C.
IC50 values for compounds were determined using seven different. […]

Another test deals with HCV replicon cells. Put plainly: HCV FRET assay in HCV replicon cells. It counts as cell-based. Particulars: Hepatitis C virus. The text has this:
FRET Assay Preparation. To perform the HCV FRET screening assay, 96-well cell culture plates were used. The FRET peptide (Anaspec, Inc.) (Taliani et al., Anal. Biochem. 1996, 240, 60-67) contains a fluorescence donor, EDANS, near one end of the peptide and an acceptor, DABCYL, near the other end. The fluorescence of the peptide is quenched by […] resonance energy transfer (RET) between the donor and the acceptor, but as the NS3 protease cleaves the peptide the products are released from RET quenching and the fluorescence of the donor becomes apparent. The assay reagent was made as follows: 5× cell Luciferase cell culture lysis reagent from Promega (#E153A) diluted to 1× with dH2O, NaCl added to 150 mM final, the FRET peptide diluted to 20 uM final from a 2 mM stock.
To prepare plates, HCV replicon cells, with or without a Renilla luciferase reporter gene, were trypsinized and placed into each well of a 96-well plate with titrated test compounds added in columns 3 through 12; columns 1 and 2 contained a control compound (HCV protease inhibitor), and the bottom row contained cells without compound. The plates were then placed in a CO2 incubator at 37° C.
Assays. Subsequent to addition of the test compounds described above (FRET Assay Preparation), at various times the plate was removed and Alamar blue solution (Trek Diagnostics, #00-100) was added per well as a measure of cellular toxicity. After reading in a Cytoflour 4000 instrument (PE Biosystems), plates were rinsed with PBS and then used for FRET assay by the addition of 30 ul of the FRET peptide assay reagent described above (FRET Assay Preparation) per well. The plate was then placed into the Cytoflour 4000 instrument which had been set to 340 excite/490 emission, automatic mode for 20 cycles and the plate read in a kinetic mode. Typically, the signal to noise using an endpoint analysis after the reads was at least three-fold. Alternatively, after Alamar blue reading, plates were rinsed with PBS, 50 ul of DMEM (high glucose) without phenol red was added and plates were then used for luciferase assay using the Promega Dual-Glo Luciferase Assay System.
Compound analysis was determined by quantification of the relative HCV replicon inhibition and the relative cytotoxicity values. To calculate cytoxicity values, the average Alamar Blue fluorescence signals from the control wells were set as 100% non-toxic. The individual signals in each of the compound test wells were then divided by the average control signal and multiplied by 100% to determine […]. To calculate the HCV replicon inhibition values, an average background value was obtained from the two wells containing the highest amount of HCV protease inhibitor at the end of the assay period. These numbers were similar to those obtained from naïve Huh-7 cells.
The background numbers were then subtracted from the average signal obtained from the control wells and this number was used as 100% activity. The individual signals in each of the compound test wells were then divided by the averaged control values after background subtraction and multiplied by 100% to determine percent activity. EC50 values for a protease inhibitor titration were calculated as the concentration which caused a 50% reduction in FRET or luciferase activity. The two numbers generated for the compound plate, percent cytoxicity and percent activity were used to determine compounds of interest for further analysis.
In general terms: A replicon is a self-replicating genome or part of one, used to study replication in cells.

At HCV NS5B, `COc1ccc2c(c1)C1CN(C)CC1(C(=O)N(C)C)Cn1c-2c(C2CCCCC2)c2ccc(C(=O)NS(=O)(=O)N(C)C)cc21` (racemic) [Example 10, rac-(3aR,14bR)-10-Cyclohexyl-N^7-(dimethylsulfamoyl)-13-methoxy-N^3a,N^3a,2-trimethyl-1,2,3,14b-tetrahydroindolo[2,1-a]pyrrolo[3,4-d][2]benzazepine-3a,7(4H)-dicarboxamide] registered an IC50 of 37 nM. In the test with HCV replicon cells, this compound gave a concentration for a half-maximal effect (EC50) of 26 nM.

Regarding `COc1ccc2c(c1)C1CN(C(=O)N(C)C)CC1(C(=O)N1C[C@@H](C)O[C@@H](C)C1)Cn1c-2c(C2CCCCC2)c2ccc(C(=O)NS(=O)(=O)N(C)C)cc21` (mixture of isomers) [Example 11, rac-(3aR,14bR)-10-cyclohexyl-3a-(((2S,6R)-2,6-dimethyl-4-morpholinyl)carbonyl)-N^7-(dimethylsulfamoyl)-13-methoxy-N^2,N^2-dimethyl-1,3a,4,14b-tetrahydroindolo[2,1-c]pyrrolo[3,4-d][2]benzazepine-2,7(3H)-dicarboxamide], at HCV NS5B (reported as class), the IC50 fell in the range of 20 to 500 nM. Moreover, in the test with HCV replicon cells (reported as class), the concentration giving a half-maximal response (EC50) was 20 to 500 nM.

As for `COc1ccc2c(c1)C1CN(C(C)CN(C)C)CC1(C(=O)N1C[C@@H](C)O[C@@H](C)C1)Cn1c-2c(C2CCCCC2)c2ccc(C(=O)NS(=O)(=O)N(C)C)cc21` (mixture of isomers) [Example 12, rac-(3aR,14bR)-10-cyclohexyl-2-(2-(dimethylamino)-1-methylethyl)-3a-(((2S,6R)-2,6-dimethyl-4-morpholinyl)carbonyl)-N-(dimethylsulfamoyl)-13-methoxy-1,2,3,3a,4,14b-hexahydroindolo[2,1-a]pyrrolo[3,4-d][2]benzazepine-7-carboxamide], the IC50 against HCV NS5B (reported as class) lay in the range of 20 to 500 nM. In the test with HCV replicon cells (reported as class), this compound registered a concentration giving a half-maximal response (EC50) of 20 to 500 nM.

In turn, `COc1ccc2c(c1)C1CN(C(=O)CN(C)C)CC1(C(=O)N1C[C@@H](C)O[C@@H](C)C1)Cn1c-2c(C2CCCCC2)c2ccc(C(=O)NS(=O)(=O)N(C)C)cc21` (mixture of isomers) [Example 13, rac-(3aR,14bR)-10-Cyclohexyl-2-(N,N-dimethylglycyl)-3a-(((2S,6R)-2,6-dimethyl-4-morpholinyl)carbonyl)-N-(dimethylsulfamoyl)-13-methoxy-1,2,3,3a,4,14b-hexahydroindolo[2,1-a]pyrrolo[3,4-d][2]benzazepine-7-carboxamide] yielded an IC50 at HCV NS5B (reported as class) of 20 to 500 nM. This compound also displayed a 50% effective concentration (EC50) with HCV replicon cells (reported as class) of 20 to 500 nM.

For `COc1ccc2c(c1)C1CN(C(=O)CN(C)C)CC1(C(=O)N(C)C)Cn1c-2c(C2CCCCC2)c2ccc(C(=O)NS(=O)(=O)N(C)C)cc21` (racemic) [Example 14, rac-(3aR,14bR)-10-Cyclohexyl-2-(N,N-dimethylglycyl)-N^7-(dimethylsulfamoyl)-13-methoxy-N^3a,N^3a-dimethyl-1,2,3,14b-tetrahydroindolo[2,1-a]pyrrolo[3,4-d][2]benzazepine-3a,7(4H)-dicarboxamide], half-maximal inhibition against HCV NS5B (IC50) required 51 nM. The compound further gave an EC50 in the test with HCV replicon cells of 47 nM.

With `COc1ccc2c(c1)C1CN(C(=O)C(=O)N(C)C)CC1(C(=O)N(C)C)Cn1c-2c(C2CCCCC2)c2ccc(C(=O)NS(=O)(=O)N(C)C)cc21` (racemic) [Example 15, rac-(3aR,14bR)-10-Cyclohexyl-2-((dimethylamino)(oxo)acetyl)-N^7-(dimethylsulfamoyl)-13-methoxy-N^3a,N^3a-dimethyl-1,2,3,14b-tetrahydroindolo[2,1-a]pyrrolo[3,4-d][2]benzazepine-3a,7(4H)-dicarboxamide], the IC50 against HCV NS5B (reported as class) lay within 20 to 500 nM. Moreover, the concentration giving a half-maximal response (EC50) in the test on HCV replicon cells (reported as class) was in the range of 20 to 500 nM.

`COc1ccc2c(c1)C1CN(C(=O)c3nccn3C)CC1(C(=O)N(C)C)Cn1c-2c(C2CCCCC2)c2ccc(C(=O)NS(=O)(=O)N(C)C)cc21` (racemic) [Example 16, rac-(3aR,14bR)-10-Cyclohexyl-N^7-(dimethylsulfamoyl)-13-methoxy-N^3a,N^3a-dimethyl-2-((1-methyl-1H-imidazol-2-yl)carbonyl)-1,2,3,14b-tetrahydroindolo[2,1-a]pyrrolo[3,4-d][2]benzazepine-3a,7(4H)-dicarboxamide]: the IC50 at HCV NS5B (reported as class) lay within 20 to 500 nM. In the test with HCV replicon cells (reported as class), this compound returned an EC50 of 20 to 500 nM.

As to `COc1ccc2c(c1)C1CN(C(C)CN(C)C)CC1(C(=O)N(C)C)Cn1c-2c(C2CCCCC2)c2ccc(C(=O)NS(=O)(=O)N(C)C)cc21` (racemic) [Example 17a, rac-(3aR,14bR)-10-cyclohexyl-2-(2-(dimethylamino)-1R-methylethyl)-N^7-(dimethylsulfamoyl)-13-methoxy-N^3a,N^3a-dimethyl-1,2,3,14b-tetrahydroindolo[2,1-a]pyrrolo[3,4-d][2]benzazepine-3a,7(4H)-dicarboxamide], the IC50 against HCV NS5B (reported as class) is 20 to 500 nM. In the test on HCV replicon cells (reported as class), this compound gave a 50% effective concentration (EC50) of 20 to 500 nM.

As to `COc1ccc2c(c1)C1CN(Cc3cncn3C)CC1(C(=O)N(C)C)Cn1c-2c(C2CCCCC2)c2ccc(C(=O)NS(=O)(=O)N(C)C)cc21` (racemic) [Example 18, rac-(3aR,14bR)-10-Cyclohexyl-N^7-(dimethylsulfamoyl)-13-methoxy-N^3a,N^3a-dimethyl-2-((1-methyl-1H-imidazol-5-yl)methyl)-1,2,3,14b-tetrahydroindolo[2,1-a]pyrrolo[3,4-d][2]benzazepine-3a,7(4H)-dicarboxamide], on HCV NS5B (reported as class), the IC50 is 20 to 500 nM. Moreover, in the test on HCV replicon cells (reported as class), the EC50 was in the range of 20 to 500 nM.
